Test results: ChEMBL document CHEMBL4680374, “Carbamate and N-Pyrimidine Mitigate Amide Hydrolysis: Structure-Based Drug Design of Tetrahydroquinoline IDO1 Inhibitors” (ACS Med Chem Lett, 2021)
In brackets after ≈: the same amount, converted by molar mass. Activity calls are given as the source filed them. The rule behind the calls is not given here.

Columns and labels:
[1] = Solubility of compound in PBS buffer at pH 2 at 200 uM incubated for 24 hrs in shaker by UPLC-DAD analysis; type: physicochemical
[2] = target: Voltage-gated inwardly rectifying potassium channel KCNH2 (Homo sapiens, UniProt Q12809); experiment: Displacement of [35S]-MK499 binding to human ERG expressed in HEK293 cells incubated for 2 hrs by liquid scintillation counting method; type: cell-based
Voltage-gated inwardly rectifying potassium channel KCNH2, sequence (Q12809 whole entry): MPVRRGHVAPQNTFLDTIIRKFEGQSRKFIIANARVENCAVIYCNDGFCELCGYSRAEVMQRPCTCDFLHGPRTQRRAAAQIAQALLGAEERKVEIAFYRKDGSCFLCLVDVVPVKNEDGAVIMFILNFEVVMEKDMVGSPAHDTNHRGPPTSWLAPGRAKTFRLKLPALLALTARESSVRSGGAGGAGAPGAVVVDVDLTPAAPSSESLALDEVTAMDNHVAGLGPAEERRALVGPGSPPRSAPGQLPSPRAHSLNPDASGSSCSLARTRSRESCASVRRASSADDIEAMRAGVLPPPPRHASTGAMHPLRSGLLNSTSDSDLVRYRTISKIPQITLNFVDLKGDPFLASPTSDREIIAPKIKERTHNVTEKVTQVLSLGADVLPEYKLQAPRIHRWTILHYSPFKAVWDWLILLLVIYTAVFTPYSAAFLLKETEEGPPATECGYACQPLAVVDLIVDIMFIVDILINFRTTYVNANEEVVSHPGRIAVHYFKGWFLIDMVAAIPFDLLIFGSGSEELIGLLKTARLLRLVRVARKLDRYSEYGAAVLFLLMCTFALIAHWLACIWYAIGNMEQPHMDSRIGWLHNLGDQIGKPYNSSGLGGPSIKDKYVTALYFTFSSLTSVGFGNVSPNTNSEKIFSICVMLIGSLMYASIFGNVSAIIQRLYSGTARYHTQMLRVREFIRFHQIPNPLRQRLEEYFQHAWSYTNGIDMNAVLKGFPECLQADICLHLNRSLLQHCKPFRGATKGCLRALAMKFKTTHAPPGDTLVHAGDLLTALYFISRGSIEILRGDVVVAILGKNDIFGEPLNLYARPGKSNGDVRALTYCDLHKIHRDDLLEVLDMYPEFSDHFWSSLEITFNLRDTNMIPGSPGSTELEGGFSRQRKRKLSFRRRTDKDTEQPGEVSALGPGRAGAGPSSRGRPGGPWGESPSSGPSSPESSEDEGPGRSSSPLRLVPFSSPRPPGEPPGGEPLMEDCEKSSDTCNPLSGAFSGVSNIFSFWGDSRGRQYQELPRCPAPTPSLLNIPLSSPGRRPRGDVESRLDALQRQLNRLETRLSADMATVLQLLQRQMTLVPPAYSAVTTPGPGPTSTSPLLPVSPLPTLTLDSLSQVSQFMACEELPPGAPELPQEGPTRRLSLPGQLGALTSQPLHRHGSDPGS

[3] = Metabolic stability in human hepatocytes at 30 uM measured upto 90 mins by LC-MS analysis; type: ADME, cell-based, Hepatocyte
[4] = Lipophilicity, log D of compound in PBS buffer at pH 7 at 200 uM incubated for 24 hrs in shaker by UPLC/DAD analysis; type: physicochemical
[5] = Metabolic stability in rat hepatocytes at 30 uM measured upto 90 mins by LC-MS analysis; type: ADME, cell-based, Hepatocyte
[6] = Solubility of compound in PBS buffer at pH 7 at 200 uM incubated for 24 hrs in shaker by UPLC-DAD analysis; type: physicochemical
[7] = Drug metabolism in human hepatocytes assessed as oxidative metabolite formation at 30 uM measured upto 90 mins by LC-MS analysis; type: ADME, cell-based, Hepatocyte
[8] = Drug metabolism in rat hepatocytes assessed as oxidative metabolite formation at 30 uM measured upto 90 mins by LC-MS analysis; type: ADME, cell-based, Hepatocyte
[9] = Protein binding in human plasma assessed as unbound fraction; type: ADME, cell-free
[10] = target: Indoleamine 2,3-dioxygenase 1 (Homo sapiens) (UniProt P14902); details: Blood, time 1095.0 min
Indoleamine 2,3-dioxygenase 1 (Homo sapiens), sequence (P14902 whole entry, looked up): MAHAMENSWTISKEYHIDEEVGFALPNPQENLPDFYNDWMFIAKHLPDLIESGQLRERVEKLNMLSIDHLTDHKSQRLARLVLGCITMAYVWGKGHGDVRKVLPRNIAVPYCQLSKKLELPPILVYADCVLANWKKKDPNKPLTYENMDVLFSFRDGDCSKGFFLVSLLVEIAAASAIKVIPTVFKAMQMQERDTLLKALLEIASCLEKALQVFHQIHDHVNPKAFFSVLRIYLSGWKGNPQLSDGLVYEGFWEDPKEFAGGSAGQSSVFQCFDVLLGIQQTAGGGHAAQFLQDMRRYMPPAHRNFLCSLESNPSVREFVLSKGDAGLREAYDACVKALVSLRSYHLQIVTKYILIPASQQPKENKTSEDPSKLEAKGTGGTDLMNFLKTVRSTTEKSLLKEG

[11] = Inhibition of Ca ion channel (unknown origin); design: species or system Homo sapiens
[12] = Apparent permeability of compound; type: ADME; details: not told
Cytochrome P450 2C9 = Cytochrome P450 2C9 (Homo sapiens, UniProt P11712); experiment: Inhibition of CYP2C9 (unknown origin); type: ADME
Cytochrome P450 2C9, sequence (P11712 whole entry): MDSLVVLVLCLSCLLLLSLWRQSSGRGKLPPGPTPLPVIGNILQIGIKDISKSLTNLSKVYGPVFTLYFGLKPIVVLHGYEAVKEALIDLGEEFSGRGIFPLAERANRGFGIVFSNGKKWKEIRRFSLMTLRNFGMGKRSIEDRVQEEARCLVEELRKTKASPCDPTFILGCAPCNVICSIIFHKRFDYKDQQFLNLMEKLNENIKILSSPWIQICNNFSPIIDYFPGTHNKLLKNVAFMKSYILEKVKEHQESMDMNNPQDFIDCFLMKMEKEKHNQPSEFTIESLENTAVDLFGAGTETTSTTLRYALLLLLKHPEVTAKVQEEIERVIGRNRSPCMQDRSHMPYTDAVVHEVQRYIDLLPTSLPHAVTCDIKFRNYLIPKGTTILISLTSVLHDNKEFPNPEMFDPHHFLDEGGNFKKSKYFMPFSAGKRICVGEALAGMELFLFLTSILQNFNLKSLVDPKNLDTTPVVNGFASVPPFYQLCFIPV

[13] = Inhibition of Na ion channel (unknown origin); design: species or system Homo sapiens
[14] = Protein binding in rat plasma assessed as unbound fraction; type: ADME, cell-free
Cytochrome P450 3A4 = Cytochrome P450 3A4 (Homo sapiens, UniProt P08684); experiment: Inhibition of CYP3A4 (unknown origin); type: ADME
Cytochrome P450 3A4, sequence (P08684 whole entry): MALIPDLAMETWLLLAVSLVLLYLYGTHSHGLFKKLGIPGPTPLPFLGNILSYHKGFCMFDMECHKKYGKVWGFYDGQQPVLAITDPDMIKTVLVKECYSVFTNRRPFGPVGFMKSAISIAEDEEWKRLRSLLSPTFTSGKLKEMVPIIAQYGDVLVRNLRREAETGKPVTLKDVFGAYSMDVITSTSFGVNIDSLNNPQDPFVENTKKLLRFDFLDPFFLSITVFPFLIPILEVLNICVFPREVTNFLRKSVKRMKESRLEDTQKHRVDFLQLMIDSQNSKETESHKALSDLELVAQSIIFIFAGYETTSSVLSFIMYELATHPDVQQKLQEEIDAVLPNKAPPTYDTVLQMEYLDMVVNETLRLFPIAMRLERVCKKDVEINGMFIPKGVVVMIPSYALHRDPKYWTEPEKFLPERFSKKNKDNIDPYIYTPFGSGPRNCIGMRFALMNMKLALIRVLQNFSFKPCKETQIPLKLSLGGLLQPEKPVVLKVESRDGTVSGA

[15] = Plasma clearance in rat at 2 mg/kg, po or 1 mg/kg, iv; type: ADME, organism-based
[16] = Oral bioavailability in rat at 2 mg/kg; type: ADME, organism-based; details: in vivo
[17] = Unbound clearance in rat at 2 mg/kg, po or 1 mg/kg, iv; type: ADME, organism-based; details: in vivo
[18] = Half life in rat at 2 mg/kg, po or 1 mg/kg, iv; type: ADME, organism-based; details: in vivo
[19] = Clearance in rat at 0.05 mg/kg, iv; type: ADME, organism-based; details: in vivo
[20] = Drug metabolism in human hepatocytes assessed as amide hydrolysis metabolite formation at 30 uM measured upto 90 mins by LC-MS analysis; type: ADME, cell-based, Hepatocyte
[21] = Unbound clearance in rat at 0.05 mg/kg, iv; type: ADME, organism-based; details: in vivo
[22] = Drug metabolism in rat hepatocytes assessed as amide hydrolysis metabolite formation at 30 uM measured upto 90 mins by LC-MS analysis; type: ADME, cell-based, Hepatocyte
[23] = target: Tryptophan 2,3-dioxygenase (Homo sapiens) (UniProt P48775); experiment: Inhibition of TDO in human SW48 cells assessed as inhibition of N-formylkynurenine production; type: cell-based
Tryptophan 2,3-dioxygenase (Homo sapiens), sequence (P48775 whole entry, looked up): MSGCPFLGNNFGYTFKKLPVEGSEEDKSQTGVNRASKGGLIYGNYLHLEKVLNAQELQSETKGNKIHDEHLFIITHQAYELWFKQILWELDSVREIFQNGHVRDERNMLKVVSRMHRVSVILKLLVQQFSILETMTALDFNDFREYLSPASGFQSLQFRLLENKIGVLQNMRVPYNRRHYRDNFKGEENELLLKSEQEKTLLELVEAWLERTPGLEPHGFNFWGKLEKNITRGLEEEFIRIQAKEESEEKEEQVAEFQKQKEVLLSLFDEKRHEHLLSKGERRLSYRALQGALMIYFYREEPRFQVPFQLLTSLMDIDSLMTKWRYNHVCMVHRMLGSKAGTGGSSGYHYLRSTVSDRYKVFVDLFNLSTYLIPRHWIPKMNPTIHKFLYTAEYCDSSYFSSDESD

Row | Compound | solubility at 24 h, 200 µM [1] [µM] | logD at 24 h, 200 µM [4] | solubility at 24 h, 200 µM [6] [µM] | IC50 [2] [µM] | further results
1 | C[C@@H](NC(=O)c1ccc(Cl)cc1)c1cc2c(cn1)N(C(=O)c1cccc(Cl)c1)CCC2 | 152 (≈ 69.1 µg/mL) | 3.3 | 27 (≈ 12.3 µg/mL) | 16 | –
2 | C[C@@H](NC(=O)c1ccc(F)cc1)c1ccc2c(n1)CCCN2C(=O)OCC(F)(F)F | 200 (≈ 85.1 µg/mL) | 3 | 132 (≈ 56.2 µg/mL) | – | –
3 | C[C@@H](NC(=O)c1ccc(F)cc1)c1ccc2c(n1)CCCN2C(=O)C1(C(F)(F)F)CC1 | 187 (≈ 81.4 µg/mL) | 2.9 | 162 (≈ 70.5 µg/mL) | – | Stabilty [3]: Stable; Stabilty [5]: Stable
4 | C[C@@H](NC(=O)c1ccc(Cl)cc1)c1ccc2c(c1)OCCN2C(=O)c1cccc(Cl)c1 | 1 (≈ 0.455 µg/mL) | 3.6 | 3 (≈ 1.37 µg/mL) | 6.9 | –
5 | CCCNC(=O)C1(c2ccc(NC(=O)c3cccc(Cl)c3)cc2)CCC1 | – | 3.2 | – | – | –
6 | O=C(NCc1ccc2c(c1)CCCN2C(=O)c1cccc(Cl)c1)c1ccc(Cl)cc1 | – | – | – | 11 | –
7 | C[C@@H](NC(=O)c1ccc(Cl)cc1)c1ccc2c(c1)CCCN2C(=O)c1cccc(Cl)c1 | < 1 | 3.7 | 3 (≈ 1.36 µg/mL) | 1 | Drug metabolism [7]: Metabolite_Detected; Drug metabolism [8]: Metabolite_Detected
8 | C[C@@H](NC(=O)c1ccc(Cl)cc1)c1ccc2c(c1)C(F)(F)CCN2C(=O)c1cccc(Cl)c1 | < 4 | 3.9 | < 4 | – | –
9 | C[C@H](NC(=O)c1ccc(Cl)cc1)c1ccc2c(c1)CCCN2C(=O)c1cccc(Cl)c1 | < 1 | 3.7 | 3 (≈ 1.36 µg/mL) | 1 | –
10 | C[C@@H](NC(=O)c1ccc(Cl)cc1)c1ccc2c(n1)CCCN2C(=O)c1cccc(Cl)c1 | 171 (≈ 77.7 µg/mL) | 3.4 | 11 (≈ 5 µg/mL) | 8.7 | –
11 | C[C@@H](NC(=O)c1ccc(F)cc1)c1ccc2c(n1)CCCN2C(=O)OC1CCC1 | 184 (≈ 73.1 µg/mL) | 3.2 | 134 (≈ 53.3 µg/mL) | – | –
12 | C[C@@H](NC(=O)c1ccc(F)cc1)c1ccc2c(n1)CCCN2C(=O)OC1COC1 | 176 (≈ 70.3 µg/mL) | 2 | 168 (≈ 67.1 µg/mL) | – | –
13 | CC(C)CC(=O)N1CCCc2cc(CNC(=O)c3ccc(Cl)cc3)cnc21 | 185 (≈ 71.4 µg/mL) | 3 | 97 (≈ 37.4 µg/mL) | – | –
14 | COCCOC(=O)N1CCCc2nc([C@@H](C)NC(=O)c3ccc(F)cc3)ccc21 | 196 (≈ 78.7 µg/mL) | 2.3 | 165 (≈ 66.2 µg/mL) | – | –
15 | CC(C)CC(=O)N1CCCc2cc(CNC(=O)c3ccsc3)ccc21 | 140 (≈ 49.9 µg/mL) | 2.8 | 137 (≈ 48.8 µg/mL) | 24 | clearance [15]: 93 mL/min/kg; Stabilty [3]: Unstable; Stabilty [5]: Unstable; inhibition [23]: inactive; half-life [18]: 0.2 h
16 | CC(C)CC(=O)N1CCCc2cc(CNC(=O)c3ccc(Cl)cc3)ccc21 | 13 (≈ 5 µg/mL) | 3.3 | 13 (≈ 5 µg/mL) | 22 | –

The next lines start with results.

Row | solubility at 24 h, 200 µM [1] [µM] | logD at 24 h, 200 µM [4] | solubility at 24 h, 200 µM [6] [µM] | Compound | IC50 [2] [µM] | further results
17 | 177 (≈ 69.1 µg/mL) | 2 | 165 (≈ 64.4 µg/mL) | Cc1cc(N2CCCc3nc([C@@H](C)NC(=O)c4ccc(F)cc4)ccc32)ccn1 | 0.73 | Stabilty [3]: Stable; Stabilty [5]: Stable
18 | 139 (≈ 52.5 µg/mL) | 2.4 | 5 (≈ 1.89 µg/mL) | C[C@@H](NC(=O)c1ccc(F)cc1)c1ccc2c(n1)CCCN2c1ncccn1 | 20 | –
19 | 143 (≈ 54 µg/mL) | 2.1 | 4 (≈ 1.51 µg/mL) | C[C@@H](NC(=O)c1ccc(F)cc1)c1ccc2c(n1)CCCN2c1cnccn1 | – | –
20 | 183 (≈ 68 µg/mL) | 2.7 | 168 (≈ 62.4 µg/mL) | CCOC(=O)N1CCCc2nc([C@@H](C)NC(=O)c3ccc(F)cc3)ccc21 | – | –
21 | 177 (≈ 66.6 µg/mL) | 2.3 | 147 (≈ 55.3 µg/mL) | C[C@@H](NC(=O)c1ccc(F)cc1)c1ccc2c(n1)CCCN2c1cccnc1 | – | –
22 | 183 (≈ 81.5 µg/mL) | – | 166 (≈ 73.9 µg/mL) | C[C@@H](NC(=O)c1ccc(F)cc1)c1ccc2c(n1)CCCN2c1ccnc(C(F)(F)F)n1 | 25 | fraction unbound [9]: 0.05; fIC50 [10]: 2.1 nM; IC50 [11]: 6 µM; Papp [12]: 33 ×10⁻⁶ cm/s; IC50 (Cytochrome P450 2C9): 18 µM; IC50 [13]: 7 µM; fraction unbound [14]: 0.037; IC50 (Cytochrome P450 3A4): 43 µM
23 | 163 (≈ 65.6 µg/mL) | 2.7 | 152 (≈ 61.2 µg/mL) | C[C@@H](NC(=O)c1ccc(F)cc1)c1ccc2c(n1)CCCN2c1ccnc(C#N)n1 | – | –
24 | 181 (≈ 69.4 µg/mL) | 2.8 | 156 (≈ 59.8 µg/mL) | C[C@@H](NC(=O)c1ccc(F)cc1)c1ccc2c(n1)CCCN2C(=O)OC1CC1 | 20 | clearance [15]: 14 mL/min/kg; fraction unbound [9]: 0.094; bioavailability [16]: 40%; IC50 [11]: 60 µM; Papp [12]: 32 ×10⁻⁶ cm/s; IC50 (Cytochrome P450 2C9): 6.2 µM; CL free [17]: 221 mL/min/kg; IC50 [13]: 60 µM; fraction unbound [14]: 0.11; IC50 (Cytochrome P450 3A4): 60 µM; half-life [18]: 1.1 h
25 | 148 (≈ 64.8 µg/mL) | 3.1 | 82 (≈ 35.9 µg/mL) | C[C@@H](NC(=O)c1ccc(F)cc1)c1ccc2c(n1)CCCN2C(=O)c1cccc(Cl)c1 | – | fraction unbound [9]: 0.029; clearance [19]: 57 mL/min/kg; Drug metabolism [20]: Metabolite_Detected; IC50 [11]: 20 µM; Papp [12]: 32 ×10⁻⁶ cm/s; CL free [21]: 1566 mL/min/kg; IC50 [13]: 20 µM; fraction unbound [14]: 0.037; Drug metabolism [22]: Metabolite_Detected; IC50 (Cytochrome P450 3A4): 20 µM; half-life [18]: 1.6 h
26 | 197 (≈ 74.2 µg/mL) | 2.7 | 151 (≈ 56.8 µg/mL) | C[C@@H](NC(=O)c1ccc(F)cc1)c1ccc2c(n1)CCCN2c1ccccn1 | – | –
27 | 168 (≈ 65.8 µg/mL) | – | 166 (≈ 65 µg/mL) | Cc1nccc(N2CCCc3nc([C@@H](C)NC(=O)c4ccc(F)cc4)ccc32)n1 | 18 | –
28 | 167 (≈ 59.7 µg/mL) | 2.3 | 154 (≈ 55 µg/mL) | COC(=O)N1CCCc2nc([C@@H](C)NC(=O)c3ccc(F)cc3)ccc21 | – | –
29 | 157 (≈ 59.3 µg/mL) | 1.9 | 164 (≈ 61.9 µg/mL) | C[C@@H](NC(=O)c1ccc(F)cc1)c1ccc2c(n1)CCCN2c1ccncn1 | – | –
